Patent publication US20210100834A1, “COMPOSITION CONTAINING A CHLORIDE SALT FOR USE IN PREGNANT ANIMALS” (Nutreco IP Assets B.V., priority 2017, published 2021)

Test system: pregnant sows
Experiment: Drinking water treatment of pregnant sows with calcium chloride and phosphoric acid, perinatal phenomena
Type: in vivo
Description: In another experiment, cations and anions were added to drinking water in such a balance, that the daily cation/anion balance of diet plus drinking water was reduced. For this, the drinking water contained 1.5 g calcium chloride per liter. […] In this experiment, next to the calcium chloride to reduce the daily cation/anion balance, a calcium binder (phosphoric acid, PhA)) was added in a concentration of 0.01 mol/liter.
It is believed that binding of dietary calcium in the gut and the inherent effect of reducing the amount of calcium available to the animal has as a consequence that the animal is triggered to mobilise calcium from its own mineral reserves in the bones. Therefore, when demand for calcium is increased as in parturition, the animal is more prepared to face this demand, and better equipped to maintain blood Ca levels.

O=P(O)(O)O [PhA, phosphoric acid]
Postnatal mortality (in vivo): 9.4%
effect of addition of calcium binder on perinatal mortality (in vivo): no negative effect
Piglets with colostrum intake <250 g/24 h (treated drinking water): 15.1%
Average colostrum intake per piglet (treated drinking water, calculated from weight gain): 408 g/24 h
